Source: patent US10246462B2, “Chemokine receptor modulators and uses thereof” (FLX Bio, Inc., priority 2016, dated 2019)
Where a name gives a salt, the structure may show the parent alone.

Molecular target: CCR4 (Homo sapiens (Human), UniProt P51679)
Test: Calcium mobilization (Ca Flux) assay
Format: cell-based
Experimental: Calcium Mobilization Assay. Calcium mobilization experiments may be performed by labeling the human T-cell line CEM with […] dye (45 min at room temperature), washing with PBS, and re-suspending into flux buffer (HBSS with 1% FBS).

CCR4, sequence (P51679 whole entry): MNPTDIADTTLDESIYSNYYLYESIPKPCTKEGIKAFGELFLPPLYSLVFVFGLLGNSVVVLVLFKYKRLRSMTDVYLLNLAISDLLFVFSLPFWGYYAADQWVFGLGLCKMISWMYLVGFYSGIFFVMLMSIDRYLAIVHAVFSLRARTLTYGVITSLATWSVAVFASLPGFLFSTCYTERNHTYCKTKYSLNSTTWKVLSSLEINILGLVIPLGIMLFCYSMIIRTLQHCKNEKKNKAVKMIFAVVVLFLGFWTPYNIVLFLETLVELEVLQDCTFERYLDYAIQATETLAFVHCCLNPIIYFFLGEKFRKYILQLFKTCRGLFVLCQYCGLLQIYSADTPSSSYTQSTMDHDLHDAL

Row | SMILES | IC50 [nM]
1 | Cc1nn([C@H](C)c2ccc(Cl)cc2Cl)c2nc(N3CC[C@H](N4CCCCCCC4)[C@H](C)C3)cnc12 [Example 16, 6-((3R,4S)-4-(Azocan-1-yl)-3-methylpiperidin-1-yl)-1-((R)-1-(2,4-dichlorophenyl)ethyl)-3-methyl-1H-pyrazolo[3,4-b]pyrazine hydrochloride] | < 100
2 | C[C@H](c1ccc(Cl)cc1Cl)n1nc(C#N)c2ncc(C3=CC[C@@H](N4CCC[C@H]4C(N)=O)[C@@H](C)C3)nc21 [Example 80, (S)-1-((1R,6S)-4-(3-Cyano-1-((R)-1-(2,4-dichlorophenyl)ethyl)-1H-pyrazolo[3,4-b]pyrazin-6-yl)-6-methylcyclohex-3-en-1-yl)pyrrolidine-2-carboxamide hydrochloride] | 100 to 500
3 | Cc1nn([C@H](C)c2ccc(Cl)cc2Cl)c2nc(N3CC[C@H](N4CCC[C@H]4CO)[C@H](C(N)=O)C3)cnc12 [Example 63, (3R,4S)-1-(1-((R)-1-(2,4-Dichlorophenyl)ethyl)-3-methyl-1H-pyrazolo[3,4-b]pyrazin-6-yl)-4-((S)-2-(hydroxymethyl)pyrrolidin-1-yl)piperidine-3-carboxamide hydrochloride] | 100 to 500
4 | C[C@@H]1CC(c2cnc3c(C#N)nn([C@H](C)c4ccc(Cl)cc4Cl)c3n2)=CC[C@@H]1N1CCC[C@H]1CN [Example 81, 6-((4S,5R)-4-((S)-2-(Aminomethyl)pyrrolidin-1-yl)-5-methylcyclohex-1-en-1-yl)-1-((R)-1-(2,4-dichlorophenyl)ethyl)-1H-pyrazolo[3,4-b]pyrazine-3-carbonitrile hydrochloride] | 100 to 500
5 | Cc1nn([C@H](C)c2ccc(Cl)cc2Cl)c2nc(N3CCC(N4CCC(F)CC4)C(C)C3)cnc12 (stereo partly drawn) [Example 61, 1-((R)-1-(2,4-Dichlorophenyl)ethyl)-6-(4-fluoro-3′-methyl-[1,4′-bipiperidin]-1′-yl)-3-methyl-1H-pyrazolo[3,4-b]pyrazine hydrochloride] | 100 to 500
6 | CC1CC(c2cnc3c(C#N)nn([C@H](C)c4ccc(Cl)cc4Cl)c3n2)=CCC1N1CCC[C@H]1CC(=O)O (mixture of isomers) [Example 85, 2-((2S)-1-(4-(3-Cyano-1-((R)-1-(2,4-dichlorophenyl)ethyl)-1H-pyrazolo[3,4-b]pyrazin-6-yl)-6-methylcyclohex-3-en-1-yl)pyrrolidin-2-yl)acetic acid 2,2,2-trifluoroacetate] | 100 to 500
7 | C[C@H](c1ccc(Cl)cc1Cl)n1nc(C#N)c2ncc(N3CC[C@H](N4CCCCC4)[C@H](CO)C3)nc21 [Example 29, 1-((R)-1-(2,4-Dichlorophenyl)ethyl)-6-((3′R,4′S)-3′-(hydroxymethyl)-[1,4′-bipiperidin]-1′-yl)-1H-pyrazolo[3,4-b]pyrazine-3-carbonitrile hydrochloride] | < 100
8 | Cc1nn([C@H](C)c2ccc(Cl)cc2Cl)c2nc(N3CC[C@@H](N4CCC[C@@H](CCC(=O)O)C4)[C@@H](C)C3)cnc12 [Example 40, 3-((3S,3′S,4′R)-1′-(1-((R)-1-(2,4-Dichlorophenyl)ethyl)-3-methyl-1H-pyrazolo[3,4-b]pyrazin-6-yl)-3′-methyl-[1,4′-bipiperidin]-3-yl)propanoic acid 2,2,2-trifluoroacetate] | > 500
9 | Cc1nn([C@H](C)c2ccc(Cl)cc2Cl)c2nc(N3CCC(N4CCC[C@H]4CCN)[C@H](C)C3)cnc12 (stereo partly drawn) [Example 45, 3-((R)-1-((3R,4S)-1-(1-((R)-1-(2,4-Dichlorophenyl)ethyl)-3-methyl-1H-pyrazolo[3,4-b]pyrazin-6-yl)-3-methylpiperidin-4-yl)pyrrolidin-2-yl)ethan-1-amine] | 100 to 500
10 | CCC1CN(c2cnc3c(C#N)nn(C(C)c4ccc(Cl)cc4Cl)c3n2)CCC1N1CCCCC1 (stereo not drawn) [Example 7, 1-(1-(2,4-Dichlorophenyl)ethyl)-6-(3′-ethyl-[1,4′-bipiperidin]-1′-yl)-1H-pyrazolo[3,4-b]pyrazine-3-carbonitrile 2,2,2-trifluoroacetate] | 100 to 500
11 | CC1CN(c2cnc3c(C(N)=O)nn(C(C)c4ccc(Cl)cc4Cl)c3n2)CCC1N1CCCCC1 (stereo not drawn) [Example 4, 1-(1-(2,4-Dichlorophenyl)ethyl)-6-(3′-methyl-[1,4′-bipiperidin]-1′-yl)-1H-pyrazolo[3,4-b]pyrazine-3-carboxamide hydrochloride] | 100 to 500
12 | CCC1CN(c2cnc3c(C(N)=O)nn(C(C)c4ccc(Cl)cc4Cl)c3n2)CCC1N1CCCCC1 (stereo not drawn) [Example 6, 1-(1-(2,4-Dichlorophenyl)ethyl)-6-(3′-ethyl-[1,4′-bipiperidin]-1′-yl)-1H-pyrazolo[3,4-b]pyrazine-3-carboxamide hydrochloride] | 100 to 500
13 | C[C@@H]1CN(c2cnc3c(C#N)nn([C@H](C)c4ccc(Cl)cc4Cl)c3n2)CC[C@@H]1N1CCC[C@H]1CCC(=O)O [Example 43, 3-((S)-1-((3R,4S)-1-(3-Cyano-1-((R)-1-(2,4-dichlorophenyl)ethyl)-1H-pyrazolo[3,4-b]pyrazin-6-yl)-3-methylpiperidin-4-yl)pyrrolidin-2-yl)propanoic acid hydrochloride] | < 100
14 | Cc1nn([C@H](C)c2ccc(Cl)cc2Cl)c2nc(N3CCC(C4CCCN(CCC(=O)O)C4)C(C)C3)cnc12 (stereo partly drawn) [Example 67, 3-(1′-(1-((R)-1-(2,4-Dichlorophenyl)ethyl)-3-methyl-1H-pyrazolo[3,4-b]pyrazin-6-yl)-3′-methyl-[3,4′-bipiperidin]-1-yl)propanoic acid hydrochloride] | 100 to 500
15 | Cc1nn([C@H](C)c2ccc(Cl)cc2Cl)c2nc(N3CCC(N4CCC[C@H]4CC(O)C(=O)O)C(C)C3)cnc12 (stereo partly drawn) [Example 59, 3-((2S)-1-(1-(1-((R)-1-(2,4-Dichlorophenyl)ethyl)-3-methyl-1H-pyrazolo[3,4-b]pyrazin-6-yl)-3-methylpiperidin-4-yl)pyrrolidin-2-yl)-2-hydroxypropanoic acid 2,2,2-trifluoroacetate] | 100 to 500
